The numbers were not newly measured in patent publication US12343373B2, “Glycopeptide antibiotics liquid formulations and methods and uses thereof” (SOMERSET THERAPEUTICS, LLC, priority 2020, dated 2025), which cites them from elsewhere.

Like-named read-outs stand apart in the source and are kept apart here.

The conditions of data set [1]: oral dosing.

For the compound `CC(=O)N[C@H](C)C(=O)O` [N-acetyl D-alanine (NADA), N-acetyl-D-alanine], for the setting “animal reproduction studies, product label black box warning”, the embryo-fetal toxicity entry is reported as “caused fetal malformations”.

Consider `CSCC[C@@H](NC(C)=O)C(=O)O` [NADM, N-acetyl-D-methionine], for which, in data set [1], the hydrolysis to methionine result was “only minimally hydrolyzed to D- and L-methionine”.

`CSCC[C@H](NC(C)=O)C(=O)O` [NALM, N-acetyl-L-methionine]: the hydrolysis to methionine result in data set [1] was “completely hydrolyzed to L-methionine and acetic acid”.

For “polyethylene glycol 400 [polyethylene glycol (PEG 400)]”, the embryo-fetal toxicity result (in vivo) is “caused fetal malformations”.
